Experimental data: patent US7645882B2, “Inhibitor of protein modification products formation” (priority 2003, dated 2010)

Experiments:
normal rat (WKY rat) = assay: Vitamin B6 deficiency in normal rat; assay type: in vivo; settings: 13 mg/kg/rat/once twice daily by sonde, 20 weeks
Protocol: TM-2002 was administered to normal rat (WKY rat: Japan SLC) to examine the presence of vitamin B6 deficiency. Aminoguanidine, which is known its vitamin B6 capturing effect was used as control. Each group involves 10 rats. 13 mg/kg/rat/once of TM-2002 or aminoguanidine suspended in carboxymethyl cellulose (0.5%) was respectively administered coercively using sonde twice a daily. Administration term was 20 weeks. The conventional diet (CRF1: Oriental yeast) was used.
After 20 weeks, the appearance of WKY rat was observed.

pentosidine = assay: Pentosidine production inhibiting effect with BSA and arabinose; assay type: biochemical; settings: BSA and arabinose instead of plasma
Protocol: Fresh heparinized plasma samples were obtained after informed consent from hemodialysis patients prior to the dialysis session, and filtrated and sterilized. To the plasma (450 μL), there was added the solution of TM-2002 in dimethylsurphoxide (50 μL) (final concentration: 0.8, 2.0, 5.0 mM) incubated at 37° C. for one week. Then, the amount of pentosidine was measured.
Measurement of the amount of pentosidine was made as follows: to each incubated sample (50 μL) was added an equal volume of 10% trichloroacetic acid, followed by centrifugation at 5000 g for 5 minutes; after removal of the supernatant, the pellet was washed by 5% trichloroacetic acid (300 μL); the pellet was dried under reduced pressure and then subjected to hydrolysis in 6N HCl solution (100 μL) at 110° C. under nitrogen atmosphere for 16 hours; to the hydrolysate, 5N NaOH (100 μL) and 0.5 M phosphate buffer (pH 7.4) (200 μL) were added, followed by filtration through a porefilter with a pore size of 0.5 μm and dilution with PBS. The concentration of free pentosidine was determined by reversed-phase HPLC using a fluorescence detector (Miyata, T. et al.: Proc. Natl. Acad. Sci. USA, Vol. 93, p. 2353-2358, 1996). The effluent was monitored at 335/385 nm of excitation/emission wavelength. Synthetic pentosidine was used as the standard. The detection limit of pentosidine was 0.1 pmol/mg protein.
The plasma from patients was substituted to BSA and arabinose, and the pentosidine production inhibiting effect of another compounds (I) or (II) was measured in the same manner as [Test Examination 1]. Therein, “-” means that the examination was not carried out.

[1] = Solubility and stability of TM-2002 injectable lyophilized formulation; assay type: physicochemical; settings: room temperature, at 10 hours
Protocol: L-cystein hydrochloride (160 mg) was added to 80 ml of purified water, stirred and solved. The solution was adjust at pH 6.7 with 1N NaOH aqueous solution. Then 1 g of TM-2002 hydrochloride was added, stirred and solved, and the solution diluted with purified water to 100 ml with measuring flask. Such solution was divided into vial container of 50 ml by 6.3 ml each, frozen immediately with dry ice, and then stored at −80° C. to freeze completely. This was subjected to lyophilized for 3 days using lyophilizer. After lyophilizing, covered by rubber cap and sealed by aluminum cap using fastener, TM-2002 injectable lyophilized formulation was prepared.
To TM-2002 injectable lyophilized formulation prepared above, there was added 20 ml of purified water per 1 vial. […] TLC (Kiezel gel 60F254/developing solvent: CHCl3:MeOH=9:1/detection:UV=254 nm) was carried out to examine the change of ingredient. […] The result of TLC is represented in FIG. 16. When the solution was further diluted with saline, the stability was as same. […] The formulation is suitable for injectable lyophilized formulation which is prepared before use, and stable and usable.

[2] = Examination of stabilizing agent in TM-2002 hydrochloride solution; assay type: physicochemical
Text: Several kind of stabilizing agent was usually used to stabilize the medicament and the effective manner is addition of antioxidant. Particularly, the material having lower oxidation-reduction potential is effective to stabilize highly oxidized compound. Accordingly, for sodium acid sulfite (NaHSO3) and L-cystein ([…]), which are usually used in injection, the stability was examined by adding such materials to TM-2002 hydrochloride aqueous solution.
The solving state of TM-2002 hydrochloride solution added sodium acid sulfite was examined in following manner; 1 ml of purified water, sodium acid sulfite (0.5 mg) and sodium acid sulfite (1 mg) solution was prepared respectively; to these solutions, there was added 63 mg of TM-2002 hydrochloride, stirred and solved; the solutions allowed to warm to room temperature to observe the solving state. […] Accordingly, the stability of TM-2002 itself will increase by using hydrochloride.
The solving state of TM-2002 hydrochloride solution added L-cystein hydrochloride was examined in following manner; 1 mg and 2 mg of L-cystein hydrochloride were dissolved in 1 ml of purified water respectively; pH was adjusted to 6.5; to these solutions, there was added 63 mg of TM-2002 hydrochloride, stirred and solved; the solutions allowed to warm to room temperature to observe the solving state. […] In addition, the degradability was observed by thin layer chromatography (TLC/Silica-gel 60F254 (Merck Japan)/developing solvent: chloroform:methanol=9:1/detection:UV=254 nm). […] Accordingly, the present invention provides lyophilized formulation comprising L-cystein by treating TM-2002 hydrochloride solution at low temperature and lyophilizing.

GRP78 = assay: ER stress inducing molecule expression in RIN-5F cells, western blot, GRP78; assay type: cell-based, rat; settings: tunicamycin added, 8 hours
Protocol: (§1) Rat pancreatic β cell line (RIN-5F) was seeded in 6 well culture plate to 1.0×10^5 cells/well, and after 24 hours, TM-2002 in DMSO (200 mM, 50 mM) were added to be final concentration 200 μM, 50 μM. After another 1 hour, 0.2 μl of tunicamycin (Sigma) in methanol(1 mg/ml) was added. After culturing 8 hours, the cells were washed 2 ml of PBS(+) twice, and the cells were dissolved in 100 μl of lysate (50 mM Tris-HCl (pH 7.5), 150 mM NaCl, 100 mM NaF, 100 mM sodium phosphate (pH 7.4), 2 mM Na3VO4, 0.1% protease inhibitor cocktail (Sigma), 1% Triton X-100). To remove the insoluble fraction of this lysate, centrifuged at 12,000×g for 10 minutes and obtained the supernatant to give cell extract. The extract was quantified its protein concentration using DC protein assay kit (Bio Rad), and each samples (1 μg) was electrophoresed by SDS-PAGE and transferred to PVDF membrane. The membrane was blocked with 5% skimmed milk/0.1% Tween20-TBS for 1 hour at room temperature, and reacted with anti-ORP150 antibody in 5% skimmed milk/0.1% Tween20-TBS (2000 folds: specific antibody), anti-GRP78 antibody (Santa Cruz) in 5% skimmed milk/0.1% Tween20-TBS (100 folds) and anti-actin antibody (Sigma) in 5% skimmed milk/0.1% Tween20-TBS (200 folds) for 2 hours. […] The detected signal was analyzed by Lane analyzer (ATTO) and calculated the signal strength. […]

ORP150 = assay: ER stress inducing molecule expression in RIN-5F cells, western blot, ORP150; assay type: cell-based, rat; settings: tunicamycin added, 8 hours
Protocol: as §1

[3] = 63 mg in 1 ml purified water only, pH 2 to 2.5, after 24 hours

Molecule: N=C(N)NN [aminoguanidine]
- condition caused by vitamin B6 deficiency (appearance) (normal rat (WKY rat)): skin inflammation, epilepsy and convulsion caused by cerebral disorder were observed

Molecule: Cc1ncc2c(c1O)C(c1c(C)nn(-c3ccccc3)c1O)OC2.Cl (centres unmarked) [compound 69, 1-(5-hydroxy-3-methyl-1-phenyl-1H-pyrazol-4-yl)-6-methyl-1,3-dihydro-furo[3,4-c]pyridin-7-ol (hydrochloric acid salt)]
- Pentosidine production rate in 5 mM of medicament (%) (pentosidine): 2.94%
- decomposition products (TLC) [1]: decomposition products were observed
- TM-2002 degradation [2, 3]: significant suppress of TM-2002 degradation was observed
- solving state [2, 3]: no change was observed in its solving state
- solving state ([2]; 63 mg in 1 ml with 0.5 mg or 1 mg sodium acid sulfite, room temperature, after 24 hours): remarkable precipitates were observed
- solving state ([2]; 63 mg in 1 ml with 1 mg or 2 mg L-cystein hydrochloride, after 24 hours): no change was observed in solving state
- solving state ([2]; 63 mg in 1 ml with 1 mg or 2 mg L-cystein hydrochloride, pH adjusted to 6.5, room temperature): no precipitates and deposits was observed
- stabilization (TLC) ([2]; by addition of L-cystein, room temperature): significantly stabilized
- degradability (TLC) ([2]; left over 24 hours at room temperature): degraded very slowly
- stability of the solution ([2]; solution with L-cystein hydrochloride, preservation at −20° C., one week): stable after one week
- solving state ([2]; with sodium sulfite or sodium pyrosulfite instead of sodium acid sulfite): crystal precipitate was deposited

Molecule: tunicamycin [reference compound]
- GRP78 expression compared to control sample (GRP78): 1.46 fords
- ORP150 expression compared to control sample (ORP150): 1.88 folds
